Assay results: ChEMBL document CHEMBL1148183, “Anti-inflammatory activity of two flavonoids from Tanacetum microphyllum” (1993)
Activity calls are given as the source filed them. The calls are words filed in the database; no cut-off is given here.

Tests used:
Mus musculus [1] = assay: Antiinflammatory activity against carrageenan-induced paw edema in Swiss mouse at 10 mg/kg, po administered 1 hr before carrageenan challenge measured after 5 hrs; assay type: functional
Mus musculus [2] = assay: Antiinflammatory activity against carrageenan-induced paw edema in po dosed Swiss mouse administered 1 hr before carrageenan challenge measured after 7 hrs; assay type: functional, organism-based
Mus musculus [3] = assay: Antiinflammatory activity against carrageenan-induced paw edema in Swiss mouse at 10 mg/kg, po administered 1 hr before carrageenan challenge measured after 3 hrs; assay type: functional
Mus musculus [4] = assay: Antiinflammatory activity against carrageenan-induced paw edema in Swiss mouse at 25 mg/kg, po administered 1 hr before carrageenan challenge measured after 3 hrs; assay type: functional
Mus musculus [5] = assay: Antiinflammatory activity against carrageenan-induced paw edema in Swiss mouse at 25 mg/kg, po administered 1 hr before carrageenan challenge measured after 5 hrs; assay type: functional
Mus musculus [6] = assay: Antiinflammatory activity against carrageenan-induced paw edema in Swiss mouse at 80 mg/kg, po administered 1 hr before carrageenan challenge measured after 5 hrs; assay type: functional
Mus musculus [7] = assay: Antiinflammatory activity against carrageenan-induced paw edema in Swiss mouse at 80 mg/kg, po administered 1 hr before carrageenan challenge measured after 3 hrs; assay type: functional

## COC(=O)c1cc(O)c2c(=O)c(O)c(-c3ccc(OC)c(O)c3)oc2c1
Mus musculus [1]
  inhibition in vivo at 10 mg/kg: 52.7%
Mus musculus [2]
  Activity: Active
Mus musculus [3]
  inhibition in vivo at 10 mg/kg: 64.9%

## COc1ccc(-c2oc3cc(O)c(OC)c(O)c3c(=O)c2OC)cc1O [CENTAUREIDIN]
Mus musculus [4]
  inhibition in vivo at 25 mg/kg: 67.6%
Mus musculus [5]
  inhibition in vivo at 25 mg/kg: 55.5%

## CCCCC1C(=O)N(c2ccccc2)N(c2ccccc2)C1=O [PHENYLBUTAZONE]
Mus musculus [6]
  inhibition in vivo at 80 mg/kg: 47.2%
Mus musculus [7]
  inhibition in vivo at 80 mg/kg: 51.4%
